Measurements as given in patent publication US20250295683A1, “HETEROCYCLIC COMPOUND, PREPARATION METHOD THEREFOR AND APPLICATION THEREOF” (SICHUAN KELUN-BIOTECH BIOPHARMACEUTICAL CO., LTD., priority 2022, published 2025).

Experiments:
whole blood of rat = experiment: Fibrinolysis effect shown by thromboelastography (TEG) with u-PA; settings: for Ma (strength of the blood clot formed): rat whole blood; for Thrombolytic activity compared with the positive compound: according to the Ma values and thromboelastograms
Protocol: Main Instruments and Reagents: thromboelastography TEG (Udibio); urokinase-type plasminogen activator (u-PA) (Aladdin); reagent 1 (the main component is kaolin); reagent 2 (main component is calcium chloride).
• (1) Test group setting: uPA group: urokinase-type plasminogen activator (u-PA) (1000 U/ml); positive compound/compound 2-1/compound 2-2 group: test compound (200 μM)+u-PA (1000 U/ml); blank group: vehicle. • (2) Formulation of compound solution: the compound was formulated using a 0.5 mg/ml trometamol solution to obtain a 4 mM mother solution, adjusted to pH 9, and diluted to a 2 mM 10× mother solution. The final test concentration was 200 μM. u-PA was formulated as a 50,000 U/ml mother solution using normal saline, and diluted to a 10,000 U/ml 10× mother solution. The final test concentration was 1000 U/ml. • (3) Test: 100 μL of u-PA was added to a sample cup (containing reagent 1) containing 800 μL of the whole blood of rat (anticoagulated with sodium citrate), 100 μL of the test compound was added, and the cup was inverted to mix well. 340 μL of the sample from the sample cup was added to the reaction cup containing 20 μL of reagent 2, and the instrument was allowed to run. The results are shown in Table 2-1, Table 2-2, Table 2-3, FIG. 1, FIG. 2 and FIG. 3. The compound concentration as shown in Table 2-1, Table 2-2, FIG. 1 and FIG. 2 was 200 μM; and the compound concentration as shown in Table 2-3 and FIG. 3 was 100 μM.

Plasminogen (Glu-Typ) = target: T1, Plasminogen (Glu-Typ) (Homo sapiens, UniProt P00747); experiment: Activation effect of the compounds on plasminogen (Glu-Typ), u-PA / VLK-pNA kinetic assay; type: biochemical; settings: for Activation multiples (5 min): slope of A405 vs t^2 divided by slope of control group; for Activation potency on plasminogen compared with the positive compound: at the same concentration
T1 construct: Plasminogen (Glu-Typ) (sigma); purchased sigma (plasminogen); Aladdin (u-PA)
T1 sequence (P00747 20-810 limits assumed): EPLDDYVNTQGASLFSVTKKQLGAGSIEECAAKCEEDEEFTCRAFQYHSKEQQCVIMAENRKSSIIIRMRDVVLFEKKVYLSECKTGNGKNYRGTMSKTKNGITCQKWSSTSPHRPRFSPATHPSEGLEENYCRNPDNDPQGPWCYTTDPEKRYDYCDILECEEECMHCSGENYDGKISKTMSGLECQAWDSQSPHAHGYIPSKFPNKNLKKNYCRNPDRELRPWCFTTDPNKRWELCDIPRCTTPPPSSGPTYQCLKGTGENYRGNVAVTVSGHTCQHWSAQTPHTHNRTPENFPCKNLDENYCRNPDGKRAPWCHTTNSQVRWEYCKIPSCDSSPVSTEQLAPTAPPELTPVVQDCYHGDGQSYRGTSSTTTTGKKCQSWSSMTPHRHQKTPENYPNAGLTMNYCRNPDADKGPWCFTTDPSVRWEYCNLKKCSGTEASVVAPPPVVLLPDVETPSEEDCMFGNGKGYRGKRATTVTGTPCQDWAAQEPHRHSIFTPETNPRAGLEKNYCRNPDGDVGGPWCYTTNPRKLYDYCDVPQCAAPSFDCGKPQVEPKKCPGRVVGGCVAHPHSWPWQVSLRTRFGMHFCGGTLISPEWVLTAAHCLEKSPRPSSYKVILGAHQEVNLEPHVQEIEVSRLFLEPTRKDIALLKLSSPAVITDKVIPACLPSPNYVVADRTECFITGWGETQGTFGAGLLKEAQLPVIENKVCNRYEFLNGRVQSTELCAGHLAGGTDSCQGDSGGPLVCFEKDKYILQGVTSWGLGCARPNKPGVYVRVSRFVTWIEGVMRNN
Protocol: (1) Formulation of Compounds The test compounds of the present invention and the positive compound are all set at three concentration points, i.e., 200 μM, 150 μM and 100 μM, respectively; the final concentration in DMSO was 2.5%.
Plasminogen (Glu-Typ) (sigma); urokinase-type plasminogen activator (u-PA) (Aladdin); vLK-pNA (absin); Multifunctional microplate reader (Thermo).
Plasminogen, the urokinase-type Plasminogen activator (u-PA) and VLK-pNA were formulated in a buffer [Tris-HCl (50 mM, pH 7.4)+NaCl (100 mM)+Tween-80 (0.01%)] to obtain mother solutions at concentrations of 100 nM (5×), 100 IU/ml (5×), and 5 mM (5×), respectively. 20 μl of 5× Plasminogen (Glu-Typ), 20 μl of 5× urokinase-type Plasminogen activator (u-PA) and 20 μl of 5×VLK-pNA were added to a 96-well plate. After mixing uniformly, 40 μl of the test compounds or positive compound were added to the 96-well plate, and a control group (no compound) was set up. The mixture was uniformly mixed well. The kinetic detection was performed using a Thermo multifunctional microplate reader, the detection wavelength was 405 nm, and the activation factor was calculated.
The following results were obtained by plotting the absorbance value at 405 nm (A405) versus time squared (t^2), using the slope of the curve for analysis, and calculating the activation multiples by dividing the slope of the compound group by the slope of the control group (see Table 1-1 and Table 1-2).

[1] = stroke resulting from acute occlusion of large vessels; cited from earlier work
[2] = in vivo; cited from earlier work
[3] = Table 2-2, compound 200 μM + u-PA 1000 U/ml
[4] = Table 2-1, compound 200 μM + u-PA 1000 U/ml
[5] = Table 2-3, compound 100 μM + u-PA 1000 U/ml

Row | Molecule | Activation multiples (5 min) (Plasminogen (Glu-Typ); Table 1-2, compound 100 μM) | Activation multiples (5 min) (Plasminogen (Glu-Typ); Table 1-2, compound 150 μM) | Activation multiples (5 min) (Plasminogen (Glu-Typ); Table 1-2, compound 200 μM) | Activation multiples (5 min) (Plasminogen (Glu-Typ); Table 1-1, compound 100 μM) | Activation multiples (5 min) (Plasminogen (Glu-Typ); Table 1-1, compound 150 μM) | Activation multiples (5 min) (Plasminogen (Glu-Typ); Table 1-1, compound 200 μM) | Ma (strength of the blood clot formed) (whole blood of rat; [3]) [mm] | Thrombolytic activity compared with the positive compound (whole blood of rat) | Activation potency on plasminogen compared with the positive compound (Plasminogen (Glu-Typ)) | recanalization rate after intravenous thrombolysis [1] [%] | half-life [2] [min] | Ma (strength of the blood clot formed) (whole blood of rat; [4]) [mm] | Ma (strength of the blood clot formed) (whole blood of rat; [5]) [mm]
1 | rt-PA: Recombinant tissue plasminogen activator | – | – | – | – | – | – | – | – | – | ≤ 25 | 3 to 5 | – | –
2 | CC(C)=CCC/C(C)=C/CC[C@@]1(C)Oc2c(c(O)cc3c2CN(CCC[C@@H](C(=O)O)N2Cc4c(cc(O)c5c4O[C@](C)(CC/C=C(\C)CCC=C(C)C)[C@@H](O)C5)C2=O)C3=O)C[C@@H]1O [Positive compound, reference compound] | 3.02 | 4.54 | 12.49 | 1.71 | 2.62 | 8.62 | 73.1 | – | – | – | – | 72.9 | 76.4
3 | CC(C)=CCC/C(C)=C/CC[C@@]1(C)Oc2c(c(OC(=O)N3CC[S+]([O-])CC3)cc3c2CN(CCC[C@@H](C(=O)O)N2Cc4c(cc(OC(=O)N5CC[S+]([O-])CC5)c5c4O[C@](C)(CC/C=C(\C)CCC=C(C)C)[C@@H](O)C5)C2=O)C3=O)C[C@@H]1O [Compound 2-6, (S)-2,5-bis((2R,3S)-2-((E)-4,8-dimethylnona-3,7-dien-1-yl)-5-((1-oxothiomorpholino-4-carbonyl)oxy)-3-hydroxy-2-methyl-7-oxo-3,4,7,9-tetrahydropyrano[2,3-E]isoindol-8(2H)-yl)pentanoic acid] | – | – | – | – | – | – | – | superior thrombolytic activity to the positive compound | – | – | – | – | 8.8
4 | CC(C)=CCC/C(C)=C/CC[C@@]1(C)Oc2c(c(OC(=O)N(C)C)cc3c2CN(CCC[C@@H](C(=O)O)N2Cc4c(cc(OC(=O)N(C)C)c5c4O[C@](C)(CC/C=C(\C)CCC=C(C)C)[C@@H](O)C5)C2=O)C3=O)C[C@@H]1O [Compound 2-1, (S)-2,5-bis((2R,3S)-5-((dimethylcarbamoyl)oxy)-2-((E)-4,8-dimethylnona-3,7-dien-1-yl)-3-hydroxy-2-methyl-7-oxo-3,4,7,9-tetrahydropyrano[2,3-E]isoindol-8(2H)-yl)pentanoic acid] | – | – | – | 5.22 | 15.93 | 42.97 | – | superior thrombolytic activity to the positive compound | better activation potency on plasminogen than the positive compounds | – | – | 4.7 | –

More lines, main results first:

Row | Activation multiples (5 min) (Plasminogen (Glu-Typ); Table 1-2, compound 100 μM) | Activation multiples (5 min) (Plasminogen (Glu-Typ); Table 1-2, compound 150 μM) | Activation multiples (5 min) (Plasminogen (Glu-Typ); Table 1-2, compound 200 μM) | Activation multiples (5 min) (Plasminogen (Glu-Typ); Table 1-1, compound 100 μM) | Activation multiples (5 min) (Plasminogen (Glu-Typ); Table 1-1, compound 150 μM) | Activation multiples (5 min) (Plasminogen (Glu-Typ); Table 1-1, compound 200 μM) | Molecule | Ma (strength of the blood clot formed) (whole blood of rat; [3]) [mm] | Thrombolytic activity compared with the positive compound (whole blood of rat) | Activation potency on plasminogen compared with the positive compound (Plasminogen (Glu-Typ)) | recanalization rate after intravenous thrombolysis [1] [%] | half-life [2] [min] | Ma (strength of the blood clot formed) (whole blood of rat; [4]) [mm] | Ma (strength of the blood clot formed) (whole blood of rat; [5]) [mm]
5 | 4.65 | 52.96 | 90.00 | – | – | – | CC(C)=CCC/C(C)=C/CC[C@@]1(C)Oc2c(c(OC(=O)N3CCS(=O)(=O)CC3)cc3c2CN(CCC[C@@H](C(=O)O)N2Cc4c(cc(OC(=O)N5CCS(=O)(=O)CC5)c5c4O[C@](C)(CC/C=C(\C)CCC=C(C)C)[C@@H](O)C5)C2=O)C3=O)C[C@@H]1O [Compound 2-5, (S)-2,5-bis((2R,3S)-2-((E)-4,8-dimethylnona-3,7-dien-1-yl)-5-((1,1-dioxothiomorpholino-4-carbonyl)oxy)-3-hydroxy-2-methyl-7-oxo-3,4,7,9-tetrahydropyrano[2,3-E]isoindol-8(2H)-yl)pentanoic acid] | 1.9 | superior thrombolytic activity to the positive compound | better activation potency on plasminogen than the positive compounds | – | – | – | –
6 | – | – | – | 6.66 | 21.12 | 42.23 | CC(C)=CCC/C(C)=C/CC[C@@]1(C)Oc2c(c(OC(=O)N3CCOCC3)cc3c2CN(CCC[C@@H](C(=O)O)N2Cc4c(cc(OC(=O)N5CCOCC5)c5c4O[C@](C)(CC/C=C(\C)CCC=C(C)C)[C@@H](O)C5)C2=O)C3=O)C[C@@H]1O [Compound 2-2, (S)-2,5-bis((2R,3S)-2-((E)-4,8-dimethylnona-3,7-dien-1-yl)-3-hydroxy-2-methyl-5-((morpholino-4-carbonyl)oxy)-7-oxo-3,4,7,9-tetrahydropyrano[2,3-e]isoindol-8(2H)-yl)pentanoi c acid] | – | superior thrombolytic activity to the positive compound | better activation potency on plasminogen than the positive compounds | – | – | 4.7 | –
